Data set [1] in a line: Phase-solubility study of HMR with HP-β-CD. Format: physicochemical. Particulars: for solubility at 72 h: acetate buffer, 25 °C, thermodynamic from solid, 0.16 M acetate buffer pH 5.0, μ = 0.5, 25° C., equilibration 72 hours. As to the method:
The phase solubility studies with HMR was also performed with HP-β-CD (0-10%). In the case of HP-β-CD the equilibration time was 72 hours.

The nature of data set [2]: Chemical stability of HMR in acetate buffer with and without 2% γ-CD. Type of data set: physicochemical. Particulars: for First-order rate constant kobs for chemical degradation / shelf-life t90% for chemical degradation: 0.16 M acetate buffer pH 5.0, 30° C.; for half-life: acetate buffer, pH 5, 0.16 M acetate buffer pH 5.0, 30° C., read-out: half-life t1/2 for chemical degradation (converted). As to the method: All the solutions were prepared by dissolving 1.5-2.0 mg of HMR into 20 ml of the solutions mentioned above, and the concentration of the remaining HMR was determined at appropriate intervals by HPLC. The pseudo-first order rate constant for overall degradation of HMR was determined from the slopes of the linear semilogarithmic plots of remaining HMR versus time. The results of the stability studies were calculated as an average of three determinations.

A short description of the next data set: physchem. Particulars: 25 °C, pH 5, aqueous buffer, thermodynamic from solid.
A short description of data set [3]: Phase-solubility study with γ-CD (Higuchi and Connors). Particulars: 0.16 M acetate buffer pH 5.0, μ = 0.5, 25° C., equilibration 24 hours.
Experimental: (§1) The samples from the solubility and stability studies were analysed by using the HPLC system which consist of the UV-detector (L-7400), interface module (D-7000), pump (L-7100) and autosampler (L-7250, Merck Hitachi, Japan). Purospher® reversed phase column (RP-18e, 5 μm, 125×4 mm) was used in all chromatographic separations.
(§2) An excess amount of lignan or lignan ester was added to acetate buffer (0.16 M; pH 5.0; ionic strength 0.5) containing various concentrations of γ-CD (0-10%). The suspensions were shaken in the dark (25° C.) for 24 hour and the pH of the suspensions were monitored during the equilibration. The pH of suspensions was adjusted to 5.0 with HCl or NaOH if necessary. After equilibration, the suspensions were filtered through 0.45 μm membrane filters and analysed by HPLC.

≈ marks a conversion by molar mass, not a printed value. Where two headings read alike, the source gives them in different places.

Experimental for physchem: as §1, §2

For orientation: solubility means the concentration that dissolves in the medium under given conditions. A high value points to much dissolved substance. On to `COc1cc(C[C@H]2C(=O)OC[C@@H]2[C@H](O)c2ccc(O)c(OC)c2)ccc1O` [HMR, hydroxymatairesinol], for which the “effect of HP-β-CD on aqueous solubility” value in data set [1] (HP-β-CD 0-10%, pH 5.0) is “increases aqueous solubility”. The solubility at 72 h in data set [1] (pH 5, aqueous buffer, HP-β-CD 0 g/100 ml) turned out to be 14.6 mg/mL (≈ 38.9 mM); in data set [1] (pH 5, aqueous with cosolvent or surfactant or cyclodextrin, HP-β-CD 1 g/100 ml) it was 14.9 mg/mL (≈ 39.8 mM); in data set [1] (pH 5, aqueous with cosolvent or surfactant or cyclodextrin, HP-β-CD 2 g/100 ml) it was 14.9 mg/mL (≈ 39.9 mM); in data set [1] (pH 5, aqueous with cosolvent or surfactant or cyclodextrin, HP-β-CD 5 g/100 ml), 20.2 mg/mL (≈ 53.8 mM); in data set [1] (pH 5, aqueous with cosolvent or surfactant or cyclodextrin, HP-β-CD 10 g/100 ml) it was 26.8 mg/mL (≈ 71.7 mM). The “First-order rate constant kobs for chemical degradation” value in data set [2] (with 2% γ-CD) was 5.71e-05 h⁻¹; in data set [2] (without γ-CD), 0.000691 h⁻¹. For the same molecule, the “shelf-life t90% for chemical degradation” value amounted to 1845 h in data set [2] (with 2% γ-CD) and 152 h in data set [2] (without γ-CD). The half-life in data set [2] (with 2% γ-CD) is 506 days; in data set [2] (without γ-CD), 41.8 days. The “increase of chemical stability by 2% γ-CD” value in data set [2] (pH 5.0, with versus without 2% γ-CD) is reported as “about 12 fold”. In addition, in data set [2] (presence and absence of 2% γ-CD at pH 5.0), the “kinetics of overall degradation” value is reported as “followed first-order kinetics”. In addition, the concentration in solution in “physchem” (solubility at 24 h) came to 6700 µg/mL (≈ 17.9 mM).
As for `COc1cc(C[C@H]2COC(=O)[C@@H]2Cc2ccc(O)c(OC)c2)ccc1O` [MR, matairesinol], the solubility at 24 h in “physchem” is 490 µg/mL (≈ 1.37 mM).
As usually defined, the aqueous solubility is the concentration that dissolves in the medium under given conditions. `CCCC(=O)Oc1ccc(C[C@H]2COC(=O)[C@@H]2Cc2ccc(OC(=O)CCC)c(OC)c2)cc1OC` [MRdiBu, matairesinol dibutyrate]: the aqueous solubility result was “—* (concentration is under the detection limit of the HPLC method employed.)” in data set [3] (γ-CD 0 g/100 ml); “—* (concentration is under the detection limit of the HPLC method employed.)” in data set [3] (γ-CD 1 g/100 ml); 0.00087 mg/mL (≈ 0.00174 mM) in data set [3] (γ-CD 2 g/100 ml); 0.00121 mg/mL (≈ 0.00243 mM) in data set [3] (γ-CD 5 g/100 ml); 0.00084 mg/mL (≈ 0.00168 mM) in data set [3] (γ-CD 10 g/100 ml).
As for `COc1cc(C[C@@H](CO)[C@H](CO)Cc2ccc(O)c(OC)c2)ccc1O` [SECO, secoisolariciresinol], the aqueous solubility in data set [3] (γ-CD 0 g/100 ml) is 0.70 mg/mL (≈ 1.93 mM); in data set [3] (γ-CD 1 g/100 ml), 1.74 mg/mL (≈ 4.8 mM); in data set [3] (γ-CD 2 g/100 ml), 2.02 mg/mL (≈ 5.57 mM); in data set [3] (γ-CD 5 g/100 ml) it was 1.78 mg/mL (≈ 4.91 mM); in data set [3] (γ-CD 10 g/100 ml) it was 0.39 mg/mL (≈ 1.08 mM).
Consider hydroxymatairesinol diacetate [HMRdiAc], for which the aqueous solubility in data set [3] (γ-CD 0 g/100 ml) came out at 0.75 mg/mL; in data set [3] (γ-CD 1 g/100 ml), 1.46 mg/mL; in data set [3] (γ-CD 2 g/100 ml), 2.07 mg/mL; in data set [3] (γ-CD 5 g/100 ml), 0.94 mg/mL; in data set [3] (γ-CD 10 g/100 ml) it was 0.16 mg/mL.
